Data: PMC12396409, “Screening and hit evaluation of a microbial metabolite library against the pathogenic Plasmodium falciparum and Toxoplasma gondii parasites” (International Journal for Parasitology: Drugs and Drug …, 2025)
Read-outs that look alike come from different tables or passages of the source.

Columns and labels:
[1] = test system: P. falciparum 3D7 parasites; test: P. falciparum growth inhibition assay, 1-cycle (72 h treatment), SYBR DNA staining (library screen at 2 μg/mL and dose-response); format: cell-based, Plasmodium falciparum; conditions: for activity at 2 µg/mL: Plasmodium falciparum, 3D7
[2] = test system: P. falciparum 3D7 parasites; test: P. falciparum growth inhibition assay, 2-cycle (120 h treatment), delayed-death screen and dose-response; format: cell-based, Plasmodium falciparum; conditions: for activity at 2 µg/mL: Plasmodium falciparum, 3D7
[3] = test system: T. gondii RH strain (RH-Tub-eYFP) tachyzoites; test: microbe, parasite or virus in culture; format: cell-based, Toxoplasma gondii; conditions: 72 h; for percent parasite growth at 2 µg/mL: Toxoplasma gondii
[4] = library screen at 2 μg/mL, 72 h, % growth, replicate 1
[5] = library screen at 2 μg/mL, 72 h, % growth, replicate 2
[6] = library screen at 2 μg/mL, 120 h, % growth, replicate 1
[7] = library screen at 2 μg/mL, 120 h, % growth, replicate 2
[8] = library screen at 2 μg/mL, % growth, replicate 1
[9] = library screen at 2 μg/mL, % growth, replicate 2
[10] = P. falciparum, 72 h, parasite screen 2 μg/mL, % growth, replicate 1
[11] = P. falciparum, 72 h, parasite screen 2 μg/mL, % growth, replicate 2
[12] = P. falciparum, 120 h, parasite screen 2 μg/mL, % growth, replicate 1
[13] = P. falciparum, 120 h, parasite screen 2 μg/mL, % growth, replicate 2
[14] = T. gondii, parasite screen 2 μg/mL, % growth, replicate 1
[15] = T. gondii, parasite screen 2 μg/mL, % growth, replicate 2

| Compound | Pf_72h_%Growth_Rep1 [1, 4] [%] | Pf_72h_%Growth_Rep2 [1, 5] [%] | Pf_120h_%Growth_Rep1 [2, 6] [%] | Pf_120h_%Growth_Rep2 [2, 7] [%] | Tg_72h_%Growth_Rep1 [3, 8] [%] | Tg_72h_%Growth_Rep2 [3, 9] [%] | Pf_72h_%Growth_Rep1 [1, 10] [%] | Pf_72h_%Growth_Rep2 [1, 11] [%] | Pf_120h_%Growth_Rep1 [2, 12] [%] | Pf_120h_%Growth_Rep2 [2, 13] [%] | Tg_72h_%Growth_Rep1 [3, 14] [%] | Tg_72h_%Growth_Rep2 [3, 15] [%] | other results |
| --- | --- | --- | --- | --- | --- | --- | --- | --- | --- | --- | --- | --- | --- |
| COc1cc(O)c2c(c1C)C(C)C(O)(CO)OC2=O (stereo not drawn) [Banksialactone A] | 70.20 | 86.53 | 148.50 | 82.39 | 101.56 | 97.07 |  |  |  |  |  |  |  |
| CO/C1=C\C(C)=C\[C@@H](C)[C@@H](O)[C@@H](C)C/C(C)=C/C=C/[C@H](OC)[C@@H]([C@@H](C)[C@@H](O)[C@H](C)[C@@]2(O)C[C@@H](O)[C@H](C)[C@@H](C(C)C)O2)OC1=O [Bafilomycin A1] |  |  |  |  |  |  |  |  |  |  |  |  | activity at 2 µg/mL ([1]; library screen at 2 μg/mL, 72 h, % growth, replicate 1, read-out: Pf_72h_%Growth_Rep1): 3.38%; activity at 2 µg/mL ([1]; library screen at 2 μg/mL, 72 h, % growth, replicate 2, read-out: Pf_72h_%Growth_Rep2): 2.45%; activity at 2 µg/mL ([2]; library screen at 2 μg/mL, 120 h, % growth, replicate 1, read-out: Pf_120h_%Growth_Rep1): 5.49%; activity at 2 µg/mL ([2]; library screen at 2 μg/mL, 120 h, % growth, replicate 2, read-out: Pf_120h_%Growth_Rep2): 9.47%; percent parasite growth at 2 µg/mL ([3]; library screen at 2 μg/mL, % growth, replicate 1, read-out: Tg_72h_%Growth_Rep1): -1.58%; percent parasite growth at 2 µg/mL ([3]; library screen at 2 μg/mL, % growth, replicate 2, read-out: Tg_72h_%Growth_Rep2): 0.71% |
| C=C1[C@@H](C)[C@H]2[C@H](Cc3ccccc3)NC(=O)[C@]23OC(=O)/C=C/C(=O)CCC[C@@H](C)C/C=C/[C@H]3[C@@H]1O [Cytochalasin A] |  |  |  |  |  |  |  |  |  |  |  |  | Pf_72h_%Growth_Rep1 ([1]; P. falciparum, 72 h, screen at 2 μg/mL, replicate 1): 14.20%; Pf_72h_%Growth_Rep2 ([1]; P. falciparum, 72 h, screen at 2 μg/mL, replicate 2): 12.98%; Pf_120h_%Growth_Rep1 ([2]; P. falciparum, 120 h, screen at 2 μg/mL, replicate 1): 0.48%; Pf_120h_%Growth_Rep2 ([2]; P. falciparum, 120 h, screen at 2 μg/mL, replicate 2): 6.78%; Tg_72h_%Growth_Rep1 ([3]; T. gondii, screen at 2 μg/mL, replicate 1): 2.84%; Tg_72h_%Growth_Rep2 ([3]; T. gondii, screen at 2 μg/mL, replicate 2): 2.30% |
| C=C1CC[C@H]2C(C)(C)CCC[C@]2(C)[C@H]1C[C@@]12C[C@H]3C(=O)N[C@@H](CC(C)C)C(=O)N3[C@@H]1Nc1ccccc12 [Drimentine A] | 31.67 | 47.87 | 26.95 | 40.06 | 101.23 | 80.15 |  |  |  |  |  |  |  |
| Albofungin | 6.93 | 9.97 | -0.91 | 21.65 | -0.16 | 2.30 |  |  |  |  |  |  |  |
| C/C=C(/C)c1cc(O)c(C)c2c1Oc1c(C)c(O)cc(/C(C)=C\C)c1C(=O)O2 [Folipastatin] | 84.22 | 87.89 | 81.33 | 105.49 | 114.14 | 93.99 |  |  |  |  |  |  |  |
| CC1=C[C@]2(C)/C=C(C)/C=C/C[C@@H](O)/C=C3C=C/C(=C4\C(=O)O[C@]2(C[C@@H]1C)C4=O)OC/3 [Spirohexenolide A] |  |  |  |  |  |  | 8.85 | 0.46 | 19.42 | -9.19 | 115.19 | 70.63 |  |
| CC[C@@H]1CCN[C@H](C(=O)N[C@@H]([C@H]2O[C@H](SC)[C@H](O)[C@@H](O)[C@H]2O)[C@H](C)Cl)C1 [BIA-P1459] |  |  |  |  |  |  |  |  |  |  |  |  | Pf_72h_%Growth_Rep1 ([1]; P. falciparum 3D7, 72 h, parasite screen at 2 μg/mL, % growth, replicate 1): 26.60%; Pf_72h_%Growth_Rep2 ([1]; P. falciparum 3D7, 72 h, parasite screen at 2 μg/mL, % growth, replicate 2): 41.09%; Pf_120h_%Growth_Rep1 ([2]; P. falciparum 3D7, 120 h, parasite screen at 2 μg/mL, % growth, replicate 1): 9.76%; Pf_120h_%Growth_Rep2 ([2]; P. falciparum 3D7, 120 h, parasite screen at 2 μg/mL, % growth, replicate 2): 125.61%; Tg_72h_%Growth_Rep1 ([3]; T. gondii, parasite screen at 2 μg/mL, % growth, replicate 1): 8.37%; Tg_72h_%Growth_Rep2 ([3]; T. gondii, parasite screen at 2 μg/mL, % growth, replicate 2): 23.25% |
| C/C=C/c1cc2c(c(=O)o1)[C@H](O)[C@@H](O)[C@H](C)O2 [Radicinol] |  |  |  |  |  |  | 83.85 | 102.30 | 82.58 | 123.93 | 118.35 | 83.89 |  |
| COc1ccc2c(c1)N(C(C)=O)[C@H]1[C@@H]3CO[C@H](C)[C@@H]4CN5CC[C@]21[C@@H]5C[C@H]34 [Strychnospermine] |  |  |  |  |  |  | 72.81 | 85.90 | 157.71 | 76.73 | 96.72 | 111.43 |  |
